The source of these data is US20220282295A1, “SINGLE-CELL LEVEL CONNECTOMICS USING A DNA-SYNTHESIS BASED BARCODING SYSTEM AND METHODS OF USING THE SAME” (Northwestern University, priority 2021, published 2022).

Data set [1] deals with HEK 293T cells. Nature of the data set: TdT-based nucleotide incorporation into hgRNA sites (DNA-synthesis based recording system, Cas9 + hgRNA + TdT) upon deoxyribonucleoside input signal. In kind it is cell-based. As to the method: The disclosed system has been prototyped in HEK-293T cells. A hgRNA was co-expressed with terminal deoxynucleotidyl transferase (TdT), and Cas9. The TdT was directed to the double-stranded breaks created by Cas9 at the hgRNA sites and added nucleotides in HEK 293T cells (FIG. 1B).
HEK 293T cells were treated with an adenosine deaminase inhibitor, pentostatin (deoxycoformycin, dCF), that inhibits degradation of dAdo, resulting in an altered nucleotide pool. The added small molecules (dAdo, dGuo, dCF etc) were defined as the input signal. The percentage change in the TdT-based nucleotides incorporated into the hgRNA sites was defined as the output signal.
(§1) Further, this system allowed for the recording of a dose response in the output signal for varying concentrations of the input signals of dAdo, dThd and dGuo (FIGS. 2A, 2B and 2C). […] None of the current genetically encoded signal recording systems^12,13 synthesize a DNA-based record in a dose response manner in mammalian cells. This salient feature of being able to synthesize a record of various NTP concentrations in the genome of cells can help in the spatial reconstruction of tightly packed together cells in tissue. Moreover, since the output signal is high (e.g. with 5 mM dThd), several lower concentrations can be distinguished, thus providing a single-cell level resolution.

In data set [2] the test system is HEK cells. Nature of the data set: Toxicity of input signal treatment to cells. In kind it is cell-based. The settings on record: 500 μM treatment.
Source text: as §1

The mark [3] stands for this setting: input signal 5 mM, HEK 293T cells, FIG. 2B.

`Nc1nc2c(ncn2[C@H]2C[C@H](O)[C@@H](CO)O2)c(=O)[nH]1` [dGuo, deoxyguanosine]: the “output signal response to input signal (in words)” value (shortened to “output signal response”) in data set [1] (HEK 293T cells) is listed as “high output signal response”.

On to `Cc1cn([C@H]2C[C@H](O)[C@@H](CO)O2)c(=O)[nH]c1=O` [dThd, deoxythymidine], for which, in data set [1] (setting [3]), the “output signal (percentage change in TdT-based nucleotides incorporated into the hgRNA sites) for A” value turned out to be 8%, the “output signal (percentage change in TdT-based nucleotides incorporated into the hgRNA sites) for C” value is given as 10%, the “output signal (percentage change in TdT-based nucleotides incorporated into the hgRNA sites) for G” value is 17.5% and the “output signal (percentage change in TdT-based nucleotides incorporated into the hgRNA sites) for T” value is on record as 20%.

Take `Nc1ncnc2c1ncn2[C@H]1C[C@H](O)[C@@H](CO)O1` [dAdo, deoxyadenosine]: the “toxicity to HEK cells” value in data set [2] is “toxic”. In data set [1] (0 to 500 μM, except for 50 μM treatment, FIG. 2A), the “dose response in the output signal with each increasing concentration of input signal” value was “higher output signal”. For the same molecule, the “output signal response” value in data set [1] (HEK 293T cells) is listed as “high output signal response”.

Consider `OC[C@H]1O[C@@H](n2cnc3c2NC=NC[C@H]3O)C[C@@H]1O` [dCF, pentostatin], for which the “output signal response” value in data set [1] (HEK 293T cells) is “high output signal response”.
